Legend:
lysosomes = assay: Colocalization with Lysotracker Red by fluorescence microscopy; type: cell-based; details: live THP-1 cells
Procedure: (§1) A. LTI studies: Aliquots of THP-1 cells (Cell densities were 1×10^6 cells per mL) were exposed to either 100 nM InstantLyso LLT-1 in RPMI 1640 medium with 10% FCS at 37° C., 5% CO2, both InstantLyso LLT-1 and 100 nM Lysotracker Red (Molecular Probes, Eugene Oreg.), or both InstantLyso LLT-1 and at a concentration of 75 nM. Mitotracker Red (Molecular Probes). In each case, medium is first pipetted off cells, then warmed medium containing dyes is added. The cell suspension is incubated for 30 minutes at 37° C. and examined by microscopy.
Colocalization of InstantLyso LLT-1 with Lysotracker red were performed under the following conditions: Live THP-1 Leukemic monocytes were grown in RPMI 1640 medium at 37C. and 5% CO2 for 5 days. 2 mL of cells were allowed to adhere to a Biocoat (polylysine coated) glass bottomed cell culture plate for 30 minutes at 37C. The old medium was removed and 2 mLs of 37 C fresh media containing 1 00 nM InstantLyso LLT-1 (from 10 μM DMSO stock) and 100 nM Lysotracker Red (from 1 mM DMSO stock) was added. Cells were incubated at 37C for 30 minutes. And visualized with an inverted epifluorescence microscope at 600× using a blue/purple (450/50 ex and 510/50 em with D480 mirror) cube for InstantLyso LLT-1 and a green (560/50 ex and 646/40 em with D595 mirror). Exposure was automatic. Temperature was ambient. […]

mitochondria = assay: Colocalization with Mitotracker Red by fluorescence microscopy; type: cell-based
Procedure: as §1
(§2) B. InstantLipo Sep-1 studies: Aliquots of either THP-1 cells or adherent human fibroblasts were exposed to either 200 nM InstantLipo Sep-1in RPMI 1640 medium with 10% FCS at 37 C, 5% CO2, both InstantLipo Sep-1and Vybrant lipid raft kit (Molecular Probes, used according to the manufacturer's instructions), both InstantLipo Sep-1and Mitotracker Red (Molecular Probes, used according to the manufacturer's instructions), or both InstantLipo Sep-1and Lysotracker Red. Cells were incubated at 37° C. for at least 20 minutes. […] Some of the punctate structures moved rapidly when observed by confocal microscopy in living cells. Conditions for colocalization are as follows: Live THP-1 Leukemic monocytes were grown in RPMI 1640 medium at 37 C and 5% CO2 for 5 days. […]

cholesterol-rich domains = assay: Staining of fibroblasts treated with cholesterol transport inhibitor U18666A; type: cell-based, human; details: foreskin fibroblasts, 3 μg/mL U18666A overnight, 150 nM dye, 30 minutes
Procedure: Similarly, 3 μg/mL from H20 stock of aminoesterol U18666A (Calbiochem)) is often used with fibroblasts to inhibit intracellular cholesterol transport and leads to accumulation of cholesterol in nuclear regions (C. F. Roff, E. Goldin, M. E. Comly, A. Cooney, A. Brown, M. T. Vanier, S. P. Miller, R. O. Brady and P. G. Pentchev, Dev Neurosci 13 (1991) 315-9). Foreskin fibroblasts were grown on coverslips for 1 day in EMEM. Medium was removed and replaced with 2 mL fresh EMEM to ensure consistent treatment as cells that were treated with U18666A. Cells were incubated at 37° C. and 5% CO2 overnight. Medium was removed and replaced with 2 mL EMEM containing 200 nM InstantLipo Sep-1. Cells were then incubated at 37° C. and 5% CO2 for 30 minutes to allow dye to load. Cells were imaged using an epifluorescence microscope at 1000× magnification while excited with a purple cube.
Foreskin fibroblasts were grown on coverslips for 3 days in EMEM. Medium was removed and replaced with 2 mL EMEM containing 3μg/mL U18666A. Cells were incubated at 37° C. and 5% CO2 overnight. Medium was removed and replaced with 2 mL EMEM containing 150 nM InstantGolgi McN-1. Cells were then incubated at 37° C. and 5% CO2 for 30 minutes to allow dye to load. […] This is consistent with the staining of more numerous and pathological cholesterol-rich domains and vesicles. […]

THP-1 cells [1] = details: FIG. 24, concentration not given
THP-1 cells [2] = assay: Staining pattern in live THP-1 cells; type: cell-based; details: THP-1 monocytic cells, 100 nM dye, 30 minutes
Procedure: as §1, §2

Compound | colocalization with lysosomes (Lysotracker Red) (lysosomes; 150 nM dye + 75 nM Lysotracker Red) | colocalization with mitochondria (MitoTracker Red) (mitochondria; live THP-1 cells, 150 nM dye + 50 nM MitoTracker Red) | staining change after U18666A (cholesterol-rich domains) | cytotoxicity / viability (Trypan blue) (THP-1 cells [1]) | co-localization with Lysotracker Red (lysosomes; 100 nM dye + 100 nM Lysotracker Red, 30 minutes) | co-localization with Mitotracker Red (mitochondria; THP-1 cells, 100 nM dye + 75 nM Mitotracker Red, 30 minutes) | staining pattern (THP-1 cells [2])
CCCCCCN1C(=O)c2cccc3c(NCCNS(=O)(=O)c4ccc(C)cc4)ccc(c23)C1=O [InstantGolgi McN-1, N-hexyl-4-[2-(4-toluensulfonyl)aminoethyl]amino-1,8-naphthalimide] | limited colocalization with lysosomes and mitochondria | limited colocalization with lysosomes and mitochondria | more punctate bright spots in cells after inhibition | no significant cytotoxicity |  |  | 
CCCCCCN1C(=O)c2cccc3c(NCCN)ccc(c23)C1=O [InstantLyso LLT-1, 6-(2-aminoethyl)amino-2-hexyl-1H-benz[de]isoquinoline-1,3-(2H)-dione] |  |  |  |  | positive co-localization | failed to exhibit such co-localization | staining in punctate structures

Source: patent publication US7528144B2, “Molecules and methods for fluorescence microscopy” (WiSys Technology Foundation, Inc., priority 2005, dated 2009)
